In PMC9961069 (Metabolites, 2023):

Assays:
[1] = target: T1, purified human DHFR (Homo sapiens, UniProt P00374); experiment: DHFR enzymatic inhibition assay (NADPH absorbance at 340 nm); assay type: biochemical; conditions: 200 nM DHFR, 137.5 μM DHF, 125 μM NADPH; n = 2; read-out: IC50
T1 construct: made in house; host or cells: E. coli BL21 (DE3) T1R pRARE2, pNIC-Bsa4 plasmid
T1 sequence (P00374 1-187): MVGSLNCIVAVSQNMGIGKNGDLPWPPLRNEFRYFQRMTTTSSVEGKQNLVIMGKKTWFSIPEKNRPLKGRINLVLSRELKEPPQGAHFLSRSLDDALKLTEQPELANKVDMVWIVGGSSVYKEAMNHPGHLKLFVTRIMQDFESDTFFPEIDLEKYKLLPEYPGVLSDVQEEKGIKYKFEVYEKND
Protocol: Working stocks of each inhibitor were created so that the final concentration of DMSO in each reaction was 2% in a final reaction volume of 100 μL. […] Reactions were prepared on ice in 384-well plates. […] Consumption of NADPH by measuring absorbance at 340 nm was used to monitor the progress of the reaction. Readings were taken every 5 min for 1 h at 37 °C using a Synergy MX microplate reader (BioTek).
Percent inhibition relative to the no-inhibitor control was determined using Equation (1). (1) % Inhibition=A340Inhibitor−A340DMSO Control/A340No DHFR−A340DMSO Control×100
Percent inhibition data were then fit to the four-parameter logistic model (Equation (2)) in GraphPad Prism 9.4.1 to determine half-maximal inhibitory concentrations (IC50):(2) y=Bottom+Top−Bottom/1+IC50/x^Hill slope where y represents the percent inhibition, x represents the concentration of inhibitor (μM), the bottom and top represent the bottom and top plateaus, and the Hill slope represents the slope factor. Each experiment contained duplicates of each sample, and each experiment was performed 2 times (n = 2). An ordinary one-way ANOVA was used to test for statistical significance between treatments.

[2] = system: MCF-7 cells; experiment: Resazurin viability assay with or without folinic acid, MCF-7; assay type: cell-based, Human; conditions: 72 h; for Relative Viability (%) – Inhibitor + FA Treatment: MCF-7, 10 μM + 300 μg/mL folinic acid; for Rescue of viability impairment by folinic acid: MCF-7, 10 μM ± 300 μg/mL FA; for Relative Viability (%) – Inhibitor Alone: MCF-7, 10 μM, relative to DMSO
Protocol: (§1) The incorporation and metabolism of resazurin to resorufin was used to monitor cell viability. MDA-MB-468, MCF7, and MDA-MB-231 cells were grown in 96-well plates with a total of 5000 cells per well in a total volume of 180 μL for 24 h, as described above. After 24 h of growth, cells were treated with increasing concentrations of compounds (0.0457–100 μM) for 72 h. A vehicle control was also performed. […] The volume of treatment added to each well was 20 μL. For folinic acid rescue experiments, 5000 cells were treated with 10 μM compound with or without 300 μg/mL folinic acid (Supelco). After 72 h of treatment, resazurin was added to a final concentration of 44 μM, and cells were incubated for an additional 4 h at 37 °C. The fluorescence of resorufin was monitored on a Synergy MX microplate reader (BioTek) using an excitation wavelength of 540 nm and an emission wavelength of 600 nm. Percent viability relative to the DMSO control was determined. Each treatment was performed in triplicate, and each individual experiment was repeated three times (n = 3).

[3] = system: leukemia; parameters: method as in PMID 5479856, PMID 5479852, PMID 5241406; conditions: early studies in the 1970s; cited from earlier work
[4] = system: T2, DHFR in MDA-MB-468 cells; experiment: DHFR accumulation assay (Western blot); assay type: cell-based, Human; conditions: MDA-MB-468, 24 h, range 0.012–1 nM
T2 construct: reactions containing 55 μg MDA-MB-468 lysate; endogenous in cells; host or cells: MDA-MB-468
Protocol: Trypsinized MDA-MB-468 cells were seeded into 6-well plates at a density of 300,000 cells per 2 mL of media and allowed to adhere for 24 h. […] The final concentration of DMSO in each well was 1%. A DMSO-only control was also performed on each individual plate. Cells were then trypsinized, harvested by centrifugation at 200× g for 5 min at 4 °C, and washed once with PBS/PIC. Cell pellets were flash frozen using an ethanol/dry ice bath and stored at −80 °C prior to lysis. Each cell pellet was lysed as described above using 50 μL PBS/PIC per cell pellet. Samples were then analyzed by Western blot, as described below, using 30 μg lysate per lane. Band intensities of DHFR were normalized to the loading control SOD1 via densitometry using ImageJ (Fiji), and each DHFR band was normalized to the DMSO control. Fold-change in DHFR band intensity was plotted against inhibitor concentration (μM). Each experiment was performed two separate times as individual biological replicates (n = 2).
(§2) Proteins were electrophoretically separated on a 10% gel, and proteins were transferred to a methanol-activated PVDF membrane using the Trans-Blot Turbo transfer system (Bio-Rad) for 7 min at 1.3 A and 25 V in Trans-Blot Turbo transfer buffer (Bio-Rad). Membranes were blocked with 5% skim milk w/v in TBS-T (20 mM Tris, 150 mM NaCl, 0.05% Tween-20) for 1 h at room temperature. […] The horseradish peroxidase (HRP)-linked anti-mouse IgG secondary antibody (NA931, Cytiva; 1:3000) was added for 1 h at room temperature in 5% skim milk w/v in TBS-T. Signal was detected by adding Immobilon Forte Western HRP Substrate (Millipore), and chemiluminescence was captured on a Sapphire Biomolecular Imager (Azure Biosystems). Band densities were determined using ImageJ (Fiji). The band intensity of DHFR was normalized to the thermostable loading control SOD1 [22].

[5] = system: MDA-MB468, MDA-MB-231, and MCF-7 breast cancer cell lines; experiment: Dose-response viability in breast cancer cell lines (statements not split by line); assay type: cell-based, Human; conditions: 0–100 μM, 72 h
Protocol: as §1

[6] = system: MDA-MB-468 cells; experiment: Resazurin viability assay with or without folinic acid, MDA-MB-468; assay type: cell-based, Human; conditions: 72 h; for Relative Viability (%) – Inhibitor + FA Treatment: MDA-MB-468, 10 μM + 300 μg/mL folinic acid; for Rescue of viability impairment by folinic acid: MDA-MB-468, 10 μM ± 300 μg/mL FA; for Relative Viability (%) – Inhibitor Alone: MDA-MB-468, 10 μM, relative to DMSO
Protocol: as §1

[7] = system: MDA-MB-231 cells; experiment: Resazurin viability assay with or without folinic acid, MDA-MB-231; assay type: cell-based, Human; conditions: 72 h; for Relative Viability (%) – Inhibitor + FA Treatment: MDA-MB-231, 10 μM + 300 μg/mL folinic acid; for Rescue of viability impairment by folinic acid: MDA-MB-231, 10 μM ± 300 μg/mL FA; for Relative Viability (%) – Inhibitor Alone: MDA-MB-231, 10 μM, relative to DMSO
Protocol: as §1

[8] = system: T3, DHFR in MDA-MB-468 lysates; experiment: Lysate cellular thermal shift assay (CETSA) for DHFR; assay type: binding, Human; conditions: 10 μM, MDA-MB-468 lysate, 45 °C for 3 min, DMSO at 37 °C = 100%
T3 construct: reactions containing 55 μg MDA-MB-468 lysate; endogenous in cells; host or cells: MDA-MB-468
Protocol: Trypsinized MDA-MB-468 cells were harvested by centrifugation at 200× g for 5 min and washed with PBS supplemented with EDTA-free PIC (Roche) and flash frozen for storage at −80 °C. Cells were lysed by resuspension in 60 μL PBS/PIC per 1 × 10^6 cells. Cells were lysed by three freeze-thaw cycles, where cells were frozen in an ethanol/dry ice bath for 3 min, immediately followed by incubation in a 37 °C water bath for 3 min. The insoluble fraction was removed by centrifugation at 20,000× g for 20 min at 4 °C. The supernatant containing the soluble lysate was removed and saved for subsequent steps.
After incubation, each reaction was transferred to a 1.5 mL tube and centrifuged at 20,000× g for 20 min at 4 °C to remove the insoluble proteins. After centrifugation, 18 μL of supernatant was carefully removed from each reaction, without disturbing any pelleted aggregates, and added to 4.5 μL of 5× SDS-PAGE loading buffer. 11 μL of each reaction was loaded onto a gel in duplicate, and proteins were detected by Western blot (as described below). Resulting band densities were fit to the Boltzmann equation to determine the melting temperature (Tm):(3) y=Bottom+Top−Bottom/1+e^Tm−x/Slope
To rescue the thermal degradation of DHFR by inhibitors, samples containing 10 μM inhibitor, 55 μg lysate, and 1% DMSO in a total volume of 28 μL in DHFR buffer were prepared in PCR tubes and incubated at room temperature for 20 min. Two DMSO-only controls were also prepared. Reactions containing inhibitors were then incubated at 45 °C for 3 min. One DMSO-only control was also heated at 45 °C for 3 min, and the other control was heated at 37 °C for 3 min. The soluble protein fraction was separated from the insoluble proteins by centrifugation, and proteins were separated by SDS-PAGE, as described above, and analyzed via Western blot, as described below. Each experiment was repeated 3 times.
as §2

Row | SMILES | IC50 [1] [nM] | Relative Viability (%) – Inhibitor + FA Treatment [2] [%] | Rescue of viability impairment by folinic acid [2] | Relative Viability (%) – Inhibitor Alone [2] [%] | Anti-leukemic activity in vivo [3] | Concentration giving notable accumulation of DHFR [4] [nM] | Phenotypic response in viability dose-response [5] | Relative Viability (%) – Inhibitor + FA Treatment [6] [%] | Rescue of viability impairment by folinic acid [6] | Relative Viability (%) – Inhibitor Alone [6] [%] | Relative Viability (%) – Inhibitor + FA Treatment [7] [%] | Rescue of viability impairment by folinic acid [7] | Relative Viability (%) – Inhibitor Alone [7] [%] | Normalized Band Density (%) of soluble DHFR [8] | Normalized Band Density (%) of soluble DHFR ([8]; listed as NSC127153) [%] | Normalized Band Density (%) of soluble DHFR ([8]; listed as NSC123032) [%]
1 | CC1(C)N=C(N)N=C(N)N1c1ccc(CCCCc2ccccc2)c(Cl)c1 [compound 128184] | 720 ± 240 | 48.65 ± 6.9 | failed to rescue | 35.94 ± 11.4 | promising anti-leukemic activity in vivo | 0.33 | induce growth arrest at low concentrations and induce cell death at higher concentrations | 16.09 ± 10.4 | failed to rescue | 12.35 ± 8.6 | 53.14 ± 12.7 | failed to rescue | 42.94 ± 9.7 |  |  | 
2 | CC1(C)N=C(N)N=C(N)N1c1ccc(CCCCc2ccccc2)cc1 [compound 127153] | 930 ± 240 | 56.75 ± 7.9 | failed to rescue | 43.03 ± 13.9 | promising anti-leukemic activity in vivo | 0.33 | induce growth arrest at low concentrations and induce cell death at higher concentrations | 23.92 ± 7.7 | failed to rescue | 17.90 ± 7.8 | 55.71 ± 12.7 | failed to rescue | 45.99 ± 10.6 | greater than 100% | 100.16 ± 36.4 | 
3 | CC1(C)N=C(N)N=C(N)N1c1ccc(CCCCc2ccc(S(=O)(=O)F)cc2)cc1 [compound 123032] | 1170 ± 460 | 104.16 ± 6.3 |  | 81.94 ± 19.4 | promising anti-leukemic activity in vivo |  | little effect at low concentrations and cytotoxicity at higher concentrations | 66.59 ± 2.1 | rescued in all but MDA-MB-468 cells | 71.41 ± 10.0 | 103.45 ± 16.5 | largest amplitude of rescue | 57.55 ± 3.1 | greater than 100% |  | 121.24 ± 45.6
